Where two headings read alike, the source gives them in different places.

Data set [1] is described as follows: MTT cell viability assay, Huh7 cells. The format is cell-based, human. Conditions: human, Huh7 cells, without TRAIL; for viability: MTT, Supplementary Table 2, read-out: Cell viability assay (%) Compound only. How it is done:
(§1) Cell viability was assessed using a 3-(4,5-dimethylthiazol-2-yl)-2,5-diphenyltetrazolium bromide (MTT, Sigma-Aldrich, St. Louis, USA) assay. The cells were seeded at a density of 1 × 10^4 cells per well and treated with the lead compounds and/or TRAIL. After 24 or 48 h, MTT (2 mg/ml) was added to each well, and the absorbance was measured using a microplate reader (Bio-Rad, Hercules, USA) at 570 nm. The cell viability was calculated as the percentage of viable cells in the drug-treated group versus the untreated control using the following equation: cell viability (%) = [OD (drug)-OD (blank)]/[OD (control)-OD (blank)] × 100.
On the technique in general: Tetrazolium assays rely on reduction of a dye to a coloured formazan, in cell work by metabolically active cells.

A further data set addresses T1, MKK7-TIPRL interaction (Homo sapiens, UniProt O14733+O75663).
T1 sequence (O14733 1-419): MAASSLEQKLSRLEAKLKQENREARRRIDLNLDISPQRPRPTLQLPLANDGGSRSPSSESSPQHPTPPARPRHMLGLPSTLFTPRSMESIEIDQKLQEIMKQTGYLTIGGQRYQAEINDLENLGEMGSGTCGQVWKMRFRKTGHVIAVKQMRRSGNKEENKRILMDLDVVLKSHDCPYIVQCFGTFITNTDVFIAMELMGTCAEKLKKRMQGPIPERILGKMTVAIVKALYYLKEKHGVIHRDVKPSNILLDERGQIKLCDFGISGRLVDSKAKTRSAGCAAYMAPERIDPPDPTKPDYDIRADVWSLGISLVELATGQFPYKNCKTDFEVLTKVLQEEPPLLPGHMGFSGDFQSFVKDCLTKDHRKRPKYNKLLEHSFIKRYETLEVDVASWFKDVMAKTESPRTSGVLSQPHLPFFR
T1 sequence (O75663 1-272): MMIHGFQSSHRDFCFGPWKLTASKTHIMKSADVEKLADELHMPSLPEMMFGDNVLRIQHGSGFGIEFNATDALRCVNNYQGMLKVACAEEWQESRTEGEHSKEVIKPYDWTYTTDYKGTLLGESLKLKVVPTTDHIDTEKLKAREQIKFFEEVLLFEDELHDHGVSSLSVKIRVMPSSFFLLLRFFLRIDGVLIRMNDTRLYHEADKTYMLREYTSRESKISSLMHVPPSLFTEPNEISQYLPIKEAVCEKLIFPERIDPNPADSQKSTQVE
The experiment in a line: ELISA of the MKK7-TIPRL interaction. The format is binding. On the set-up: The full-length cDNAs of human TIPRL and MKK7 were provided by the Korea Human Gene Bank; His; made in house. An excerpt:
The full-length cDNAs of human TIPRL and MKK7 were provided by the Korea Human Gene Bank (Korea Research Institute of Biosciences and Biotechnology, South Korea). TIPRL and MKK7 were subcloned into the pET21a vector (purchased from Novagen, San Diego, CA) and the pEBG vector containing a GST tag (kindly provided by Y. Liu, National Institute on Aging, National Institutes of Health) to construct the His-tagged and the GST-tagged plasmids, respectively. Purified TIPRL was conjugated with horseradish peroxidase (HRP). To screen chemical compounds using HTS, an ELISA system that detected the TIPRL and MKK7 interaction was constructed. Briefly, 96-well ELISA plates were coated with GST-MKK7 dissolved in PBS-T buffer (PBS containing 0.05% Tween-20 and 0.5% BSA), followed by the addition of 100 μl of TIPRL-HRP dissolved in PBS-T buffer. After 1 h, 100 μl of tetramethylbenzidine (TMB) solution was added to each well and the absorbance was read at 450 nm.

Another data set relates to Huh7 cells. Kind of data set: MTT cell viability assay, Huh7 cells. The format is cell-based, human. Conditions: for effect on cell viability / cell death of Huh7 cells in the presence of TRAIL: MTT, co-treatment with TRAIL. How it is done: as §1
For another data set, the system named is caspase-3. The experiment in a line: Caspase 3 activity assay in Huh7 cells. It is filed as cell-based, human. Conditions: each compound at its working concentration and time of the table. As to the method: The caspase 3 activity was measured using a caspase-3 luminescent assay kit (Promega, Madison, WI, USA), according to the manufacturer's instructions, and a luminescence plate reader (Molecular Devices Co., Sunnyvale, USA).

For the next data set, the system named is caspase-3 and PARP. Kind of data set: Western blot of cleaved caspase-3 and PARP in Huh7 cells. It is filed as cell-based, human. The note with it: lead compounds co-treated with TRAIL 100 ng/ml, TRAIL tested alone. As to the method: The cells were lysed in lysis buffer (50 mM Tris-HCl, pH 7.4, 150 mM NaCl, 1% Triton™ X-100, 0.1% SDS, 1 mM EDTA, 1 mM Na3VO4, 1 mM NaF, and protease inhibitor cocktail) and clarified by centrifugation at 14,000×g for 20 min at 4°C. The protein samples were then subjected to Western blotting with the indicated antibodies.
On the technique in general: In western blotting, separated proteins are transferred to a membrane and probed.

A further data set relates to Huh7 tumor xenografts. The experiment in a line: In vivo Huh7 xenograft assay. Further details: species or system BALB/c nude mice. An excerpt:
Five-week-old female BALB/c nude mice were purchased from SLC Japan and were maintained in accordance with the guidelines of the Institutional Review Committee for Animal Care and Use of the Korea Research Institute of Bioscience and Biotechnology. Protocol approval was obtained from the same committee.
Huh7 cells were harvested and subcutaneously injected (5 × 10^6 cells/mouse) into nude mice (N = 6/group for TRT-0173 or TRT-0029 experiments). When the tumor volume reached ~100 mm^3, the mice were divided into four groups and treated with vehicle, TRAIL (2.5 mg/kg, intraperitoneal), lead compound (TRT-0029 or TRT-0173, 30 mg/kg, intravenously), or lead compound (30 mg/kg, intravenously) combined with TRAIL (2.5 mg/kg, intraperitoneal) daily for 11 days (11 treatments in total). The tumor volumes were measured every 2 days for 11 days after treatment, and tumor volume was calculated according to the following equation: V (mm^3) = width^2 (mm^2) × length (mm)/2. Body weight and tumor mass were measured 11 days after treatment.

[2] abbreviates: hit compounds from the in-house library, Supplementary Table 2, read-out: ELISA IC50.

With `CC(=O)c1cc(-n2cc3cc(N)ccc3n2)c(Cl)cc1Cl` [Compound 10], the viability in data set [1] turned out to be 111%. In addition, the half-inhibitory concentration (IC50) on MKK7-TIPRL interaction (setting [2]) was found to be 3500 nM.
On to `CC(=O)c1cc(-n2ncc3cc(NS(=O)(=O)c4ccccc4)ccc32)c(Cl)cc1Cl` [Compound 3], for which the viability in data set [1] turned out to be 42%. The IC50 on MKK7-TIPRL interaction (setting [2]) amounted to 1700 nM.
`CC(=O)c1cc(-n2ncc3cc(N)ccc32)c(Cl)cc1Cl` [TRT-0002]: in data set [1] (Huh7, MTT, 40 µM, 48 hrs, Supplementary Table 3, read-out: Cell viability assay Compound only), the viability at 48 h, 40 µM is 81%. Besides, the viability in data set [1] amounted to 80%. In addition, the viability at 40 µM in the data set with Huh7 cells (Homo sapiens, Huh-7, Huh7, MTT, 40 µM, 48 hrs, with TRAIL, Supplementary Table 3, read-out: Cell viability assay Compound + TRAIL) was determined as 29%. In addition, the “effect on cell viability / cell death of Huh7 cells in the presence of TRAIL” value is given as “significantly enhanced TRAIL-induced cell death” in the data set with Huh7 cells and “synergetic effect” in the data set on Huh7 cells (listed as 16). Also, the “Caspase 3 activity Compound + TRAIL/Compound” value with caspase-3 came to 1.80 ratio. In addition, the IC50 on MKK7-TIPRL interaction (setting [2]) was determined as 1000 nM; on MKK7-TIPRL interaction (newly synthesized TRT-0002, ELISA, read-out: IC50 to inhibit the MKK7-TIPRL interaction) it was 1400 nM.
Take `O=Cc1cc([N+](=O)[O-])ccc1F` [Compound 6]: the viability in data set [1] came out at 93%. At MKK7-TIPRL interaction (setting [2]), the half-inhibitory concentration (IC50) came to 2000 nM.
For `COc1ccc(S(=O)(=O)Nc2ccc3c(cnn3-c3ccc(F)cc3)c2)cc1` [Compound 4] the same measures were 86% and 89 nM.
With `O=[N+]([O-])c1ccc2c(cnn2-c2ccc(F)cc2)c1` [Compound 8], the viability in data set [1] stood at 69%. The half-inhibitory concentration (IC50) at MKK7-TIPRL interaction (setting [2]) amounted to 2800 nM.
For `O=[N+]([O-])c1ccc(F)c(/C=N/Nc2ccc(F)cc2)c1` [Compound 7] the same measures were 89% and 8900 nM.
For `Nc1ccc2c(cnn2-c2ccc(F)cc2)c1` [Compound 9], the viability in data set [1] stood at 90%. Further, the IC50 on MKK7-TIPRL interaction (setting [2]) was determined as 1000 nM.
For `Nc1ccc2[nH]ncc2c1` [Compound 5] the same measures were 81% and 1400 nM.

B1: TRAIL: human TRAIL protein, member of the TNF superfamily, used as co-treatment (protein, UniProt P50591 1-281, looked up)
Tumor necrosis factor ligand …: MAMMEVQGGPSLGQTCVLIVIFTVLLQSLCVAVTYVYFTNELKQMQDKYSKSGIACFLKEDDSYWDPNDEESMNSPCWQVKWQLRQLVRKMILRTSEETISTVQEKQQNISPLVRERGPQRVAAHITGTRGRSNTLSSPNSKNEKALGRKINSWESSRSGHSFLSNLHLRNGELVIHEKGFYYIYSQTYFRFQEEIKENTKNDKQMVQYIYKYTSYPDPILLMKSARNSCWSKDAEYGLYSIYQGGIFELKENDRIFVSVTNEHLIDMDHEASFFGAFLVG
As to B1, in the data set on caspase-3 and PARP, the “apoptosis signals (cleaved caspase-3, PARP) by Western blotting” value is “did not activate caspase-3”. Moreover, the “anti-cancer effects of TRAIL alone in vivo” value in the data set with Huh7 tumor xenografts (5 and 2.5 mg/kg, data not shown) was “dose-dependent anti-cancer effects”. Moreover, in the data set on Huh7 tumor xenografts (TRAIL 2.5 mg/kg i.p. daily for 11 days), the “reduction of average tumor mass, TRAIL alone” value was found to be 24.8%.

As usually defined, the viability is a read-out of living cells in per cent, often relative to untreated cells. For orientation: IC50 means the point on the concentration scale where inhibition reaches its midpoint.

The values above are taken from PMC5762535, “Novel indazole-based small compounds enhance TRAIL-induced apoptosis by inhibiting the MKK7-TIPRL interaction in hepatocellular carcinoma” (Oncotarget, 2017).
